Results on 33 molecules are retold here after PubChem BioAssay (NCI).

Some test systems named below: DMS 114 small cell lung; SNB-78 CNS; MDA-N; LXFL 529 NSCLC; RXF-631 renal; XF 498 CNS; HOP-18 NSCLC; DLD-1 colon; DMS 273 small cell lung.
What all share (test): NCI tumour cell line growth inhibition, 48 h

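Where inhibition never reached the appropriate level, the endpoint shown equals the highest concentration tested. Otherwise, values were interpolated linearly from a five-concentration, 48-hour dose response in 96-well plates. GI50 = concentration required for 50% inhibition of growth. TGI marks complete inhibition of growth.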 Bounds are passed on as bounds.

Turning to `N#CC1(C2SCCS2=O)C2=C(C(=O)c3ccccc3C2=O)N2CCCC21` (stereo not drawn), the TGI in the experiment on DMS 114 small cell lung was determined as 6 µM; in the experiment with SNB-78 CNS, 6.89 µM; in the experiment with MDA-N, 1.55 µM; with LXFL 529 NSCLC, 8.06 µM; in the experiment on RXF-631 renal, 5.3 µM; with XF 498 CNS, 8.15 µM. Moreover, the TGI in the experiment on HOP-18 NSCLC was 8.16 µM; with DLD-1 colon, 14.1 µM; with DMS 273 small cell lung it was 12.2 µM.
In the experiment with MDA-N, `CC(C)c1ccccc1S(=O)c1ccccc1C(C)(C)O` (stereo not drawn) returned a TGI above 100 µM.
`O=C(CN1CCCCC1)N1CCc2c([nH]c3ccccc23)C1c1cccnc1` (stereo not drawn): the TGI in the experiment with DMS 114 small cell lung, with SNB-78 CNS, with LXFL 529 NSCLC, with RXF-631 renal, in the experiment with XF 498 CNS and with HOP-18 NSCLC was above 100 µM each time. For the same molecule, the TGI with DLD-1 colon and in the experiment with DMS 273 small cell lung was above 100 µM in each case.
On to `N#CC1Nc2ccccc2[C@@H](O)C1O` (stereo partly drawn), for which the TGI with MDA-N was above 100 µM.
As to `O=C(O)c1cc(O)c2c(c1)C(C1c3cc(C(=O)O)cc(O)c3C(=O)c3c(OC4OC(CO)C(O)C(O)C4O)cccc31)c1cccc(OC3OC(CO)C(O)C(O)C3O)c1C2=O` (stereo not drawn), in the experiment with MDA-N, the GI50 was above 100 µM and the TGI is above 100 µM.
`O=C(O)c1cccc(OCCO)c1` gave a TGI in the experiment with MDA-N above 100 µM.
On to `N#CC(C(=O)/C(=N/Nc1nc(=S)[nH]n1N)C(C#N)c1ccccc1)c1ccccc1` (stereo not drawn), for which the TGI in the experiment on DMS 114 small cell lung, in the experiment with SNB-78 CNS, in the experiment on LXFL 529 NSCLC, in the experiment with RXF-631 renal, with XF 498 CNS and in the experiment with HOP-18 NSCLC was above 100 µM throughout. In addition, the TGI in the experiment on DLD-1 colon and with DMS 273 small cell lung was above 100 µM throughout.
As to `CN=NN(C)C(=O)NC`, the TGI in the experiment on DMS 114 small cell lung, in the experiment with LXFL 529 NSCLC, with HOP-18 NSCLC and in the experiment on DLD-1 colon was above 100 µM throughout.
In the experiment with MDA-N, `O=C(O)Cc1c(O)ccc2ccccc12` yielded a TGI above 100 µM.
In the case of `CCOC(=O)C1N(S(=O)(=O)c2ccc(C)cc2)CCC12C(c1ccc(OC)cc1)NC1CCCCC12` (stereo not drawn), the TGI with DMS 114 small cell lung, in the experiment on SNB-78 CNS, with LXFL 529 NSCLC, in the experiment with RXF-631 renal, with DLD-1 colon and in the experiment on DMS 273 small cell lung was above 100 µM in each case.
For `CC(=O)OCC1OC([S-])C(OC(C)=O)C(OC(C)=O)C1OC(C)=O.CC[PH+](CC)CC.CC[PH+](CC)CC.[Au].[Au]` (stereo not drawn), the GI50 with SNB-78 CNS was 0.311 µM; in the experiment on LXFL 529 NSCLC it was 0.153 µM; with XF 498 CNS it was 0.181 µM; in the experiment on HOP-18 NSCLC, 0.253 µM; in the experiment with DLD-1 colon, 0.174 µM; with DMS 273 small cell lung it was 0.453 µM. For the same molecule, the TGI in the experiment on SNB-78 CNS came to 2.79 µM; in the experiment with LXFL 529 NSCLC, 0.322 µM; with XF 498 CNS, 0.449 µM; in the experiment with HOP-18 NSCLC, 0.694 µM; in the experiment on DLD-1 colon, 0.49 µM; in the experiment on DMS 273 small cell lung, 2.11 µM.
Regarding `COc1ccccc1NC(=O)C1=C(C)NC(C)=C(C(=O)Nc2ccccc2OC)C1c1ccc([N+](=O)[O-])cc1`, the TGI in the experiment with DMS 114 small cell lung was above 100 µM; in the experiment with SNB-78 CNS it was above 100 µM; in the experiment on LXFL 529 NSCLC, above 100 µM; with RXF-631 renal, above 100 µM; in the experiment with XF 498 CNS, 33.7 µM; in the experiment on HOP-18 NSCLC, above 100 µM. Besides, the TGI with DLD-1 colon and in the experiment with DMS 273 small cell lung was above 100 µM in each case.
Turning to `O=C(/C=C/c1ccccc1)/C=C/c1ccccc1`, the TGI with DMS 114 small cell lung was 52.9 µM; with SNB-78 CNS it was above 100 µM; with LXFL 529 NSCLC, 50.1 µM; in the experiment with RXF-631 renal, above 100 µM; with HOP-18 NSCLC it was 92.8 µM; in the experiment on DLD-1 colon it was 32.5 µM. Besides, the TGI with DMS 273 small cell lung was above 100 µM.
In the case of `O=C1CSC(Cc2nc3ccccc3[nH]2)=N1`, the TGI in the experiment with DMS 114 small cell lung was above 59.2 µM; in the experiment on SNB-78 CNS, above 100 µM; in the experiment on LXFL 529 NSCLC it was above 53.8 µM; in the experiment with XF 498 CNS it was 39.9 µM; with HOP-18 NSCLC it was 65.6 µM; with DLD-1 colon it was 49 µM. The same molecule had a TGI with DMS 273 small cell lung of 35.4 µM.
`COc1ccccc1/C=C/c1cnccn1` registered a TGI in the experiment on MDA-N above 10 µM.
In the experiment on MDA-N, `O/N=C\c1c(O)ccc2ccccc12` gave a TGI above 100 µM.
For the molecule `CC1=C(C(=O)Nc2c(C)cccc2C)C(c2ccccc2Cl)C(C(=O)Nc2c(C)cccc2C)=C(C)N1`, the TGI in the experiment with DMS 114 small cell lung, in the experiment on SNB-78 CNS, with LXFL 529 NSCLC, with XF 498 CNS, in the experiment with DLD-1 colon and with DMS 273 small cell lung was above 100 µM throughout.
Consider `O=C(O)c1ccccc1-c1ccccc1C(=O)Nc1ccc2c(c1)Cc1cc(F)ccc1-2`, for which the TGI in the experiment on MDA-N was 75.5 µM.
As for `O=S(O)CCCCSSCc1ccccc1CSSCCCCS(=O)O`, the TGI in the experiment with DMS 114 small cell lung was 35.2 µM; in the experiment with LXFL 529 NSCLC, 24.8 µM; in the experiment on RXF-631 renal, above 100 µM; with XF 498 CNS, 25.5 µM; with HOP-18 NSCLC, above 100 µM; in the experiment with DLD-1 colon it was above 100 µM. This molecule gave a TGI in the experiment with DMS 273 small cell lung above 100 µM.
On to `CC(C)(C)N1CC2(CCCCC2)C1=O`, for which the TGI in the experiment on DMS 114 small cell lung, in the experiment on SNB-78 CNS, in the experiment with HOP-18 NSCLC, in the experiment on DLD-1 colon and with DMS 273 small cell lung was above 100 µM throughout.
In the case of `Cc1cc(C)n(CCNCCn2nc(C)cc2C)n1`, the TGI in the experiment on DMS 114 small cell lung is above 100 µM; in the experiment on SNB-78 CNS, above 100 µM; in the experiment with LXFL 529 NSCLC, above 100 µM; in the experiment with XF 498 CNS, above 1 µM; with DLD-1 colon, above 100 µM; in the experiment on DMS 273 small cell lung, above 100 µM.
On to `CCOC(=O)[C@H](CCCNC(=O)OC(C)(C)C)NCc1ccc(OC)c(OC)c1`, for which the TGI with DMS 114 small cell lung, in the experiment with LXFL 529 NSCLC, in the experiment on RXF-631 renal, in the experiment with XF 498 CNS, in the experiment on HOP-18 NSCLC and with DLD-1 colon was above 100 µM each time. This molecule yielded a TGI with DMS 273 small cell lung above 100 µM.
For the molecule `O=C(O)c1c(-c2nccc3ccccc23)[nH]c(-c2ccccc2)c1S(=O)(=O)O`, the TGI in the experiment with MDA-N was above 100 µM.
Take `O=C(CSc1nnc(-c2ccccc2NC(=O)C(F)(F)F)c(=O)[nH]1)NC(=O)Nc1ccccc1`: the TGI is above 100 µM with SNB-78 CNS; above 100 µM in the experiment on LXFL 529 NSCLC; above 100 µM in the experiment with XF 498 CNS; 44.7 µM in the experiment with DLD-1 colon; above 100 µM with DMS 273 small cell lung.
For `CCOC(=O)c1[nH]c(COC(C)=O)c(CCCOC(C)=O)c1CCCOC(C)=O`, the TGI in the experiment on SNB-78 CNS, in the experiment with LXFL 529 NSCLC, in the experiment on XF 498 CNS and with DMS 273 small cell lung was above 100 µM in each case.
`Nc1nc(Cl)cc(NCCO)n1` registered a TGI in the experiment with MDA-N above 100 µM.
For `COC(=O)/C=C/C1C(C(=O)OC)C2(C(=O)OC)CCC1(C(=O)OC)N2` (stereo not drawn), the TGI with SNB-78 CNS, with LXFL 529 NSCLC, in the experiment on RXF-631 renal, in the experiment on XF 498 CNS, in the experiment with HOP-18 NSCLC and in the experiment on DLD-1 colon was above 100 µM throughout. The molecule further yielded a TGI with DMS 273 small cell lung above 100 µM.
Consider `O=C(CCC/C(CC(=O)c1ccc(Br)cc1)=N\O)Nc1ccccc1`, for which the TGI in the experiment on DMS 114 small cell lung, in the experiment with SNB-78 CNS, in the experiment on LXFL 529 NSCLC, with XF 498 CNS, in the experiment with HOP-18 NSCLC and in the experiment with DLD-1 colon was above 100 µM in each case.
Consider `CCOC(=O)CCc1c(C)c2c(OC(C)=O)cc(OC(C)=O)cc2oc1=O`, for which the TGI was 70.8 µM in the experiment with DMS 114 small cell lung; above 100 µM in the experiment on SNB-78 CNS; above 100 µM in the experiment with LXFL 529 NSCLC; above 100 µM with HOP-18 NSCLC; above 100 µM with DLD-1 colon; above 100 µM with DMS 273 small cell lung.
Turning to `CCCCCCCCCc1cc(=O)c2c(O)cccc2o1`, the TGI in the experiment on DMS 114 small cell lung, in the experiment with SNB-78 CNS, in the experiment on LXFL 529 NSCLC, with RXF-631 renal, with XF 498 CNS and in the experiment with HOP-18 NSCLC was above 100 µM each time. Also, the TGI in the experiment with DLD-1 colon and in the experiment with DMS 273 small cell lung was above 100 µM throughout.
For `N#CC(/C(=N/NC(=O)C(=O)NN)C(=O)NC12CC3CC(CC(C3)C1)C2)c1ccccc1` (stereo not drawn), the TGI with DMS 114 small cell lung, in the experiment with SNB-78 CNS, in the experiment on LXFL 529 NSCLC, in the experiment with RXF-631 renal, in the experiment on HOP-18 NSCLC and in the experiment with DLD-1 colon was above 100 µM throughout. The molecule further came in with a TGI in the experiment with DMS 273 small cell lung above 100 µM.
As for `O=C(/C=C/c1c(O)ccc2ccccc12)c1ccc2ccccc2c1`, the TGI in the experiment with DMS 114 small cell lung, in the experiment on SNB-78 CNS, with DLD-1 colon and in the experiment on DMS 273 small cell lung was above 100 µM throughout.
`O=C(CCC(=O)Nc1cccc(Cl)c1)CC(=O)c1ccc(Cl)cc1`: the TGI in the experiment with SNB-78 CNS, in the experiment on LXFL 529 NSCLC, with RXF-631 renal, with XF 498 CNS and in the experiment on DMS 273 small cell lung was above 100 µM in each case.
